The values that follow are results of earlier work, collected in patent US20100113580A1, “COMBINATION THERAPIES FOR THE TREATMENT OF OBESITY” (priority 2008, published 2010).

For this data set the following is noted: literature studies of single weight loss drugs.

As to `CC(C)CC(N(C)C)C1(c2ccc(Cl)cc2)CCC1` (stereo not drawn) [sibutramine], the “weight loss of body weight for drug compared with placebo” value (“weight loss … compared with placebo” below) is on record as “about 5%”. As to `CCN[C@@H](C)Cc1cccc(C(F)(F)F)c1` [dexfenfluramine], the “weight loss … compared with placebo” value is on record as “about 5%”. As for `CCCCCCCCCCC[C@@H](C[C@@H]1OC(=O)[C@H]1CCCCCC)OC(=O)[C@H](CC(C)C)NC=O` [orlistat], the “weight loss … compared with placebo” value is on record as “about 5%”.
